Measured values from patent publication US20210161997A1, “TREATING DISEASES VIA TARGETED MODULATION OF GENE SIGNALING NETWORKS” (Camp4 Therapeutics Corporation, priority 2018, published 2021).

How the values were obtained:
Assay type in all cases: cell-based
LECT2 = assay: RNA-seq of LECT2 expression in compound-treated primary human hepatocytes
Experimental: (§1) Human hepatocytes were obtained from two donors from Massachusetts General Hospital, namely MGH54 and MGH63, and one donor from Lonza, namely HUM4111B. Cryopreserved hepatocytes were cultured in plating media for 16 hours, transferred to maintenance media for 4 hours. Cultured on serum-free media for 2 hours, then a compound was added. The hepatocytes were maintained on the serum-free media for 16 hours prior to gene expression analysis. Primary human hepatocytes were stored in the vapor phase of a liquid nitrogen freezer (about −130° C.).
(§2) Human hepatocytes cultured as described above were plated in 24-well format, adding 375,000 cells per well in a volume of 500 ul plating medium. Four hours before treatment, cells were washed with PBS and the medium was changed to either: fresh maintenance medium (complete) or modified maintenance medium.
(§3) Compound stocks were prepared at 1000× final concentration and added in a 2-step dilution to the medium to reduce risk of a compound precipitating out of solution when added to the cells, and to ensure reasonable pipetting volumes. One at a time, each compound was first diluted 10-fold in warm (about 37° C.) modified maintenance medium (initial dilution=ID), mixed by vortexing, and the ID was diluted 100-fold into the cell culture (e.g. 5.1 ul into 1 well of a 24-well plate containing 0.5 mL medium). The plate was mixed by carefully swirling and after all wells were treated and returned to the incubator overnight. If desired, separate plates/wells were treated with vehicle-only controls and/or positive controls. If using multi-well plates, controls were included on each plate. After about 18 hours, cells were harvested for further analysis, e.g., ChIP-seq, RNA-seq, ATAC-seq, etc.
(§4) This protocol is a modified version of the following protocols: MagMAX mirVana Total RNA Isolation Kit User Guide (Applied Biosystems #MAN0011131 Rev B.0), NEBNext Poly(A) mRNA Magnetic Isolation Module (E7490), and NEBNext Ultra Directional RNA Library Prep Kit for Illumina (E7420) (New England Biosystems #E74901).
(§5) The MagMAX mirVana kit instructions (the section titled “Isolate RNA from cells” on pages 14-17) were used for isolation of total RNA from cells in culture. Two hundred μl of Lysis Binding Mix was used per well of the multiwell plate containing adherent cells (usually a 24-well plate).
(§6) For mRNA isolation and library prep, the NEBNext Poly(A) mRNA Magnetic Isolation Module and Directional Prep kit was used. RNA isolated from cells above was quantified, and prepared in […] of each sample in 50 μl of nuclease-free water. This protocol may be run in microfuge tubes or in a 96-well plate.
(§7) Standard QC were applied (read integrity, mapping statistics, library complexity, fragment bias) to remove unsatisfactory samples. […] Log 2 fold change and significance values were computed using PME count data (with replicates explicitly modeled versus pan-experiment controls), median ratio normalized, using maximum likelihood estimation rather than maximum a posteriori, and disabling the use of Cook's distance cutoff when determining acceptable adjusted p-values. […] RNA-seq signals were also normalized by read depth and visualized using the UCSC browser.
(§8) To identify small molecules that modulate target gene expression, primary human hepatocytes were prepared as a monoculture, and at least one small molecule compound was applied to the cells.
(§9) RNA-seq was performed to determine the effects of the compounds on the expression of the target genes in hepatocytes. Fold change was calculated by dividing the level of expression in the cell system that had been perturbed by the level of expression in an unperturbed system. Changes in expression having a p-value ≤0.05 were considered significant.
(§10) Significance was defined as an FPKM ≥1, a log 2(fold change) ≥0.5, and a q-value of ≤0.05 for all targets except for CPOX.

UGT1A1 = assay: RNA-seq of UGT1A1 expression in compound-treated primary human hepatocytes
Experimental: as §1, §2, §3, §4, §5, §6, §7, §8, §9, §10

SERPINC1 mRNA [1] = assay: Quantitative PCR of SERPINC1 mRNA in primary human hepatocytes (Lonza Hu4282) treated with compounds; settings: quantitative PCR
SERPINC1 mRNA [2] = assay: Quantitative PCR of SERPINC1 mRNA in mouse hepatocytes treated with compounds; settings: for SERPINC1 mRNA, Mouse Heps, 1 uM: compound 1 uM; for SERPINC1 mRNA, Mouse Heps, 10 uM: compound 10 uM
Experimental: Samples were amplified using Taqman probes from ThermoFisher.
In some examples, RQ Min and RQ Max values are also reported. RQ Min and RQ Max are the minimum and maximum relative levels of gene expression in the test samples, respectively. They were calculated using the confidence level set in the analysis settings and the confidence level was set to one standard deviation (SD). These values were calculated using standard deviation as follows: […].
Compounds were tested in hepatocytes for upregulation of SERPINC1 mRNA for identification of potential treatments of SERPINC1/AT III deficiency.

ANGPTL3 = assay: RNA-seq of ANGPTL3 expression in compound-treated primary human hepatocytes; settings: additional compounds (Table 13), linear fold change
Experimental: as §1, §2, §3, §4, §5, §6
All pass filter reads from each sample were mapped against the human genome (assembly GRCh38/GCA_000001405.15 “no alt” analysis set merged with hs38d1/GCA_000786075.2) using two pass mapping via STAR version 2.5.3a (alignment parameters alignIntronMin=20; alignIntronMax=1000000; outFilterMismatchNmax=999; outFilterMismatchNoverLmax=0.05; outFilterType=BySJout; outFilterMultimapNmax=20; alignSJoverhangMin=8; alignSJDBoverhangMin=1; alignMatesGapMax=1000000) (Dobin et al., Bioinformatics (2012) 29(1):15-21). Genomic alignments were converted to transcriptome alignments based on reference transcript annotations from the Human GENCODE Gene Set release 24 (Harrow et al., Genome Res. (2012) 22(9): 1760-1774). Using unique and multimapped transcriptomic alignments, gene-level abundance estimates were computed using RSEM version 1.3.0 (Li and Dewey, BMC Bioinformatics (2011) 12:323) in a strand-aware manner, and including confidence interval sampling calculations, to arrive at posterior mean estimates (PME) of abundances (counts and normalized FPKM—fragments per kilobase of exon per million mapped fragments) from the underlying Bayesian model. Standard QC were applied (read integrity, mapping statistics, library complexity, fragment bias) to remove unsatisfactory samples.

JAG1 = assay: RNA-seq of JAG1 expression in compound-treated primary human hepatocytes; settings: for JAG1 Fold Change (Log2): primary human hepatocytes
Experimental: (§11) Human hepatocytes were obtained from two donors from Massachusetts General Hospital, namely MGH54 and MGH63, and one donor from Lonza, namely HUM4111B. Cryopreserved hepatocytes were cultured in plating media for 16 hours, transferred to maintenance media for 4 hours. Cultured on serum-free media for 2 hours, then a compound was added. The hepatocytes were maintained on the serum-free media for 16 hours prior to gene expression analysis. Primary human hepatocytes were stored in the vapor phase of a liquid nitrogen freezer (about -130° C.). Human hepatocytes cultured as described above were plated in 24-well format, adding 375,000 cells per well in a volume of 500 ul plating medium. Four hours before treatment, cells were washed with PBS and the medium was changed to either: fresh maintenance medium (complete) or modified maintenance medium. Compound stocks were prepared at 1000× final concentration and added in a 2-step dilution to the medium to reduce risk of a compound precipitating out of solution when added to the cells, and to ensure reasonable pipetting volumes. […] The plate was mixed by carefully swirling and after all wells were treated and returned to the incubator overnight. If desired, separate plates/wells were treated with vehicle-only controls and/or positive controls. If using multi-well plates, controls were included on each plate. After about 18 hours, cells were harvested for further analysis, e.g., ChIP-seq, RNA-seq, ATAC-seq, etc. This protocol is a modified version of the following protocols: MagMAX mirVana Total RNA Isolation Kit User Guide (Applied Biosystems #MAN0011131 Rev B.0), NEBNext Poly(A) mRNA Magnetic Isolation Module ([…]), and NEBNext Ultra Directional RNA Library Prep Kit for Illumina ([…]) (New England Biosystems #E74901). […] Two hundred μl of Lysis Binding Mix was used per well of the multiwell plate containing adherent cells (usually a 24-well plate). For mRNA isolation and library prep, the NEBNext Poly(A) mRNA Magnetic Isolation Module and Directional Prep kit was used. RNA isolated from cells above was quantified, and prepared in […] of each sample in 50 μl of nuclease-free water. This protocol may be run in microfuge tubes or in a 96-well plate. […] Genomic alignments were converted to transcriptome alignments based on reference transcript annotations from the Human GENCODE Gene Set release 24 (Harrow et al., Genome Res. […] Standard QC were applied (read integrity, mapping statistics, library complexity, fragment bias) to remove unsatisfactory samples. Differential gene expression was computed using the negative binomial model implemented by DESeq2 version 1.16.1 (Love et al., Genome Biol. (2014) 15(12):550). […] RNA-seq signals were also normalized by read depth and visualized using the UCSC browser. To identify small molecules that modulate target gene expression, primary human hepatocytes were prepared as a monoculture, and at least one small molecule compound was applied to the cells. RNA-seq was performed to determine the effects of the compounds on the expression of the target genes in hepatocytes. Fold change was calculated by dividing the level of expression in the cell system that had been perturbed by the level of expression in an unperturbed system.

NOTCH2 = assay: RNA-seq of NOTCH2 expression in compound-treated primary human hepatocytes; settings: for NOTCH2 Fold Change (Log2): primary human hepatocytes; for Significant modulation of NOTCH2 (in words): summary of Table 6
Experimental: as §11

CO[C@H]1/C=C/O[C@@]2(C)Oc3c(C)c(O)c4c(O)c(c(/C=N/N5CCN(C)CC5)c(O)c4c3C2=O)NC(=O)/C(C)=C\C=C\[C@H](C)[C@H](O)[C@@H](C)[C@@H](O)[C@@H](C)[C@H](OC(C)=O)[C@@H]1C [Rifampicin]
LECT2 Fold Change (Log2) (LECT2): −0.88 Log2

CC(C)c1nc(CN(C)C(=O)N[C@H](C(=O)N[C@@H](Cc2ccccc2)C[C@H](O)[C@H](Cc2ccccc2)NC(=O)OCc2cncs2)C(C)C)cs1 [Ritonavir]
LECT2 Fold Change (Log2) (LECT2): −1.00 Log2
UGT1A1 Fold Change (Log2) (UGT1A1): 0.63 Log2

CN1C/C=C/CCOc2cccc(c2)-c2ccnc(n2)Nc2cccc(c2)C1 [SB1317/TG02]
SERPINC1 mRNA, Lonza Hu4282, 1 uM (SERPINC1 mRNA [1]; primary human hepatocytes Lonza Hu4282, compound 1 uM): 1.9
SERPINC1 mRNA, Lonza Hu4282, 10 uM (SERPINC1 mRNA [1]; primary human hepatocytes Lonza Hu4282, compound 10 uM): 2.28
SERPINC1 mRNA, Mouse Heps, 1 uM (SERPINC1 mRNA [2]): 1.13
SERPINC1 mRNA, Mouse Heps, 10 uM (SERPINC1 mRNA [2]): 1.85

CN1CCN(CCCN2c3ccccc3Sc3ccc(C(F)(F)F)cc32)CC1 [TFP]
LECT2 Fold Change (Log2) (LECT2): −0.91 Log2
ANGPTL3-LINEAR FOLD CHANGE (ANGPTL3): 0.2832

CCOC(=O)N1c2ccc(C(F)(F)F)cc2[C@@H](N(Cc2cc(C(F)(F)F)cc(C(F)(F)F)c2)C(=O)OC)C[C@H]1CC [Torcetrapib]
JAG1 Fold Change (Log2) (JAG1): 0.68 Log2
Significant modulation of JAG1 (in words) (JAG1; summary of Table 6): significantly modulate both JAG1 and NOTCH2
NOTCH2 Fold Change (Log2) (NOTCH2): 0.76 Log2
Significant modulation of NOTCH2 (in words) (NOTCH2): significantly modulate both JAG1 and NOTCH2
LECT2 Fold Change (Log2) (LECT2): −0.86 Log2

COc1nc(C)cnc1NS(=O)(=O)c1cccnc1-c1ccc(-c2nnco2)cc1 [Zibotentan]
JAG1 Fold Change (Log2) (JAG1): 0 Log2
NOTCH2 Fold Change (Log2) (NOTCH2): 0.94 Log2
Significant modulation of NOTCH2 (in words) (NOTCH2): significantly modulate only NOTCH2
LECT2 Fold Change (Log2) (LECT2): −0.83 Log2

C[C@]12CC[C@@H]3c4ccc(O)cc4CC[C@H]3[C@@H]1CC[C@@H]2O [b-Estradiol]
LECT2 Fold Change (Log2) (LECT2): −0.90 Log2

COc1cccc2cc(-c3nc([C@H]4CC[C@H](C(=O)O)CC4)n4ncnc(N)c34)[nH]c12 [compound 308 (OSI-027)]
SERPINC1 mRNA, H8290, 1 uM (SERPINC1 mRNA [1]; hepatocytes H8290, compound 1 uM): 1.7
SERPINC1 mRNA, H8290, 10 uM (SERPINC1 mRNA [1]; hepatocytes H8290, compound 10 uM): 1.9
SERPINC1 mRNA, Mouse Heps, 1 uM (SERPINC1 mRNA [2]): 1.53
SERPINC1 mRNA, Mouse Heps, 10 uM (SERPINC1 mRNA [2]): 2.36
